Where two headings read alike, the source gives them in different places. Blank lines part the entries; values can stand above or below the compound they belong to.
What was measured:
LPAR1 receptor = biological target: T1, LPAR1 receptor (Homo sapiens, UniProt Q92633); experiment: LPAR1 in vitro biological activity evaluation 2: HTRF cAMP kit (LANCE Ultra cAMP Kit) assay in CHO stable transfected cell line expressing the LPAR1 receptor; assay type: cell-based; details: Table 2, read-out: LPAR1 inhibitory activity IC50
T1 construct: expressed in transfected cells
T1 sequence (Q92633 whole entry): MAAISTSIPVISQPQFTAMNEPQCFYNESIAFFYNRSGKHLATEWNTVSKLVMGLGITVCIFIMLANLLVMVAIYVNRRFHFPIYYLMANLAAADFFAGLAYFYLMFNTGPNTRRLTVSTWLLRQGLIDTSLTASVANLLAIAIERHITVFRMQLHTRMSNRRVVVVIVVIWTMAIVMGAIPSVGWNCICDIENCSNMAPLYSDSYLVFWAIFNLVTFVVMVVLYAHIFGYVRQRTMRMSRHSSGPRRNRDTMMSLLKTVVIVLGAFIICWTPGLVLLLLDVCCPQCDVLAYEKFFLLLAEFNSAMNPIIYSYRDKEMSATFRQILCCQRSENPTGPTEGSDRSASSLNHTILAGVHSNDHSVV
Procedure: The inhibitory effects of the compounds of the present disclosure on the LPAR1 receptor were determined using a Chinese hamster ovary (CHO) stable transfected cell line expressing the LPAR1 receptor, through the HTRF cAMP kit (LANCE® Ultra cAMP Kit).
The CHO cell line expressing the LPAR1 receptor was cultured in F-12 medium (Gibco, 117650054) containing 10% fetal bovine serum (FBS, Avantor, 76294-180) and 0.2 mg/mL hygromycin B (Solarbio, H8080-1g) at 37°C with 5% CO2. Cell passage, recovery, and cryopreservation were performed according to conventional methods. The stable transfected cell line was cultured to 80% confluence, digested with trypsin to collect cells, counted, and then seeded at 5 µL/well in a 384-well plate (500 cells/5 µL). The 1× Stimulation Buffer was prepared according to the instructions of the kit (LANCE® Ultra cAMP Kit). 1 µL of the test compound solution (diluted to 10× with 1× Stimulation Buffer) was added to the corresponding experimental wells, followed by centrifugation and incubation at 37°C for 10 minutes. […] 5 µL/well of Eu-cAMP (diluted with Detection buffer) was added to the corresponding experimental wells. 5 µL/well of ULight™-anti-cAMP antibody (diluted with Detection buffer) was added to the corresponding experimental wells, followed by centrifugation and incubation at room temperature for 1 hour. After the incubation was completed, the readings at 665 nm and 620 nm under 330 nm excitation were detected using the HTS high-throughput drug screening multifunctional microplate reader (BMG, PHERAstar FSX). The IC50 values were calculated by fitting nonlinear regression (dose response - variable slope) using GraphPad Prism software.

[1] = Pharmacokinetic study in rats (oral gavage and tail vein injection, plasma LC-MS/MS); assay type: in vivo; details: rat; for Cmax: read-out: Cmax
How it was run: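 Male SD rats (200–250 g) are dosed orally (fasted; 5% DMSO/5% ethanol/60% PEG400/30% saline) or by tail-vein injection (10% ethanol/20% water/70% PEG400). Plasma sampled up to 24 h is analysed by LC-MS/MS. Non-compartmental analysis yields Cmax, C0, Tmax, AUC and T1/2.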

[2] = biological target: hLPAR1 (human lysophosphatidic acid receptor 1, Accession No.: NM_001401.4) (Homo sapiens, UniProt Q92633); experiment: cell-based; details: LPAR1 inhibitory activity IC50, Table 1; FLIPR method, CHO-K1 cells overexpressing hLPAR1
Chain of hLPAR1 (human lysophosphatidic acid receptor 1, Accession No.: NM_001401.4) (Q92633 whole entry): as above
How it was run: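 Antagonist mode in CHO-K1 cells stably expressing hLPAR1, Fluo-4 loaded; compound preincubated 30 min at room temperature before 1 µM oleoyl-LPA (final) challenge.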

IC50 (LPAR1 receptor): 407 nM
half-life ([1]; male, SD, iv, 1 mg/kg): 3.26 h
half-life ([1]; male, SD, po, 1 mg/kg): 2.37 h
half-life ([1]; male, SD, po, 3 mg/kg): 2.59 h
AUC(0-t) ([1]; male, SD rats, Iv, 1 mg/kg): 811 ng·h/mL
Cmax ([1]; male, SD rats, Iv, 1 mg/kg): 1570 ng/mL
AUC(0-t) ([1]; male, SD rats, Po, 1 mg/kg): 626 ng·h/mL
Cmax ([1]; male, SD rats, Po, 1 mg/kg): 154 ng/mL
AUC(0-t) ([1]; male, SD rats, Po, 3 mg/kg): 1540 ng·h/mL
Cmax ([1]; male, SD rats, Po, 3 mg/kg): 985 ng/mL
SMILES: CCCN(C)C(=O)OCc1c(-c2ccc(O[C@H]3CCC[C@H](C(=O)O)C3)c(C)n2)nnn1C [Control compound 1, reference compound]

IC50 (LPAR1 receptor): 33.4 nM
half-life ([1]; male, SD, iv, 1 mg/kg): 6.87 h
half-life ([1]; male, SD, po, 1 mg/kg): 5.7 h
AUC(0-t) ([1]; male, SD rats, Iv, 1 mg/kg): 3000 to 5000 ng·h/mL
Cmax ([1]; male, SD rats, Iv, 1 mg/kg): 5000 to 8000 ng/mL
AUC(0-t) ([1]; male, SD rats, Po, 1 mg/kg): 3000 to 5000 ng·h/mL
Cmax ([1]; male, SD rats, Po, 1 mg/kg): 200 to 800 ng/mL
SMILES: CCOC1CC(C#Cc2ccc(-c3nnn(C)c3NC(=O)O[C@H](C)C(F)(F)CC)nc2C)(CC(=O)O)C1 (stereo partly drawn) [compound 429]

IC50 (LPAR1 receptor): 24.1 nM
SMILES: CCC(F)(F)[C@@H](C)OC(=O)Nc1c(-c2ccc(C#CC3(CC(=O)O)CC(OC)C3)c(Cl)n2)noc1C (stereo partly drawn) [compound 470]

IC50 (LPAR1 receptor): 52.3 nM
SMILES: CCC(F)(F)[C@@H](C)OC(=O)Nc1c(C)noc1-c1ccc(C#C[C@@H]2CCC[C@H]2C(=O)O)c(C)n1 [compound 485]

IC50 (LPAR1 receptor): 20.1 nM
half-life ([1]; male, SD, iv, 1 mg/kg): 2.51 h
half-life ([1]; male, SD, po, 1 mg/kg): 2.41 h
AUC(0-t) ([1]; male, SD rats, Iv, 1 mg/kg): 10000 to 20000 ng·h/mL
Cmax ([1]; male, SD rats, Iv, 1 mg/kg): 8000 to 12000 ng/mL
AUC(0-t) ([1]; male, SD rats, Po, 1 mg/kg): 10000 to 20000 ng·h/mL
Cmax ([1]; male, SD rats, Po, 1 mg/kg): 800 to 5000 ng/mL
SMILES: CCC(F)(F)[C@@H](C)OC(=O)Nc1c(C)noc1-c1ccc(C#CC2(CC(=O)O)CC(OC)C2)c(C(F)(F)F)n1 (stereo partly drawn) [compound 506]

Second part, the compound before the results:

SMILES: CCC(F)(F)[C@@H](C)OC(=O)Nc1c(-c2ccc(C#CC3(CC(=O)O)CC(OC)C3)c(C(F)(F)F)n2)nnn1C (stereo partly drawn) [compound 463]
IC50 (LPAR1 receptor): 38.2 nM
AUC(0-t) ([1]; SD rats, Iv, 1 mg/kg): 3000 to 5000 ng·h/mL
half-life ([1]; SD rats, Iv, 1 mg/kg): 5.44 h
Cmax ([1]; SD rats, Iv, 1 mg/kg): 5000 to 8000 ng/mL
AUC(0-t) ([1]; SD rats, Po, 1 mg/kg): 5000 to 10000 ng·h/mL
half-life ([1]; SD rats, Po, 1 mg/kg): 5.47 h
Cmax ([1]; SD rats, Po, 1 mg/kg): 800 to 5000 ng/mL

SMILES: CCCC[C@@H](C)OC(=O)Nc1c(-c2ccc(C#CC3(CC(=O)O)CC3)c(C)n2)nnn1C [compound 313]
IC50 (LPAR1 receptor): 156 nM
AUC(0-t) ([1]; SD rats, Iv, 1 mg/kg): 3000 to 5000 ng·h/mL
half-life ([1]; SD rats, Iv, 1 mg/kg): 5.12 h
Cmax ([1]; SD rats, Iv, 1 mg/kg): 800 to 5000 ng/mL
AUC(0-t) ([1]; SD rats, Po, 3 mg/kg): 10000 to 20000 ng·h/mL
half-life ([1]; SD rats, Po, 3 mg/kg): 5.59 h
Cmax ([1]; SD rats, Po, 3 mg/kg): 800 to 5000 ng/mL
IC50 [2]: 16.1 nM

SMILES: CCCC(C)OC(=O)Nc1c(-c2ccc(C#CC3CCCC3C(=O)O)c(C)n2)nnn1C (single isomer, unassigned) [305-B]
IC50 (LPAR1 receptor): 81.5 nM
AUC(0-t) ([1]; SD rats, Iv, 1 mg/kg): 3000 to 5000 ng·h/mL
half-life ([1]; SD rats, Iv, 1 mg/kg): 3.52 h
Cmax ([1]; SD rats, Iv, 1 mg/kg): 800 to 5000 ng/mL
AUC(0-t) ([1]; SD rats, Po, 1 mg/kg): 5000 to 10000 ng·h/mL
half-life ([1]; SD rats, Po, 1 mg/kg): 3.49 h
Cmax ([1]; SD rats, Po, 1 mg/kg): 800 to 5000 ng/mL

SMILES: CCC(F)(F)[C@@H](C)OC(=O)Nc1c(-c2ccc(C#CC3(CC(=O)O)CC(OC)C3)c(C(F)(F)F)n2)noc1C (stereo partly drawn) [compound 493]
IC50 (LPAR1 receptor): 8.5 nM

SMILES: CCC[C@@H](C)OC(=O)Nc1c(-c2ccc(C#CC3(CC(=O)O)CC4(CC4)C3)c(C)n2)nnn1C [compound 478]
IC50 (LPAR1 receptor): 2.1 nM

SMILES: CCC[C@@H](C)OC(=O)Nc1c(-c2ccc(C#CC3(CC(=O)O)CC(OC)C3)c(C)n2)nnn1C (single isomer, unassigned) [278-A]
IC50 (LPAR1 receptor): 46.2 nM
